Some test systems named below: T-47D breast; A498 renal; HCT-15 colon; NCI-H460 lung; RXF 393 renal; OVCAR-5 ovarian; HT29 colon; K-562 leukemia.
Holding throughout (assay): NCI-60 cell line screen, 48 h

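Five compound concentrations were applied to cells in 96-well plates for 48 hours; endpoints were derived by simple linear interpolation of the resulting dose-response curve. GI50 is the concentration that inhibits growth by half. TGI marks complete inhibition of growth.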

For the compound `O=C1C2C(C(=O)[N]1[Hg][c]1cccs1)C1(Cl)C(Cl)=C(Cl)C2(Cl)C1(Cl)Cl` (stereo not drawn), the GI50 in the experiment on T-47D breast is 0.57 µM; in the experiment with A498 renal, 2.29 µM; in the experiment on HCT-15 colon, 0.821 µM; in the experiment on NCI-H460 lung, 3.04 µM; in the experiment with RXF 393 renal, 1.5 µM; in the experiment with OVCAR-5 ovarian, 1.85 µM. The GI50 in the experiment on HT29 colon was 0.649 µM; in the experiment on K-562 leukemia, 0.291 µM. Also, the TGI with T-47D breast came out at 2.94 µM; in the experiment with A498 renal, 6.05 µM; in the experiment with HCT-15 colon, 2.27 µM; with NCI-H460 lung, 10.1 µM; in the experiment with RXF 393 renal, 3 µM; with OVCAR-5 ovarian, 3.61 µM. The results for the TGI in the experiment with HT29 colon and with K-562 leukemia were 3.57 µM and 3.41 µM, respectively.
Consider `Fc1ccc(-c2nn3c(-c4ccc(F)c(Cl)c4)nnc3s2)cc1`, for which the GI50 in the experiment with T-47D breast was 34.8 µM; in the experiment on A498 renal, greater than 50 µM; in the experiment on HCT-15 colon, 22.7 µM; in the experiment on NCI-H460 lung, 27.7 µM; in the experiment on RXF 393 renal, 0.688 µM; in the experiment on OVCAR-5 ovarian, greater than 50 µM. Besides, the results for the GI50 in the experiment on HT29 colon and in the experiment with K-562 leukemia were 22.9 µM and 34.3 µM, respectively. Also, the TGI in the experiment with T-47D breast was greater than 50 µM; in the experiment with A498 renal it was greater than 50 µM; in the experiment on HCT-15 colon, greater than 50 µM; with NCI-H460 lung, greater than 50 µM; with RXF 393 renal it was 18.7 µM; with OVCAR-5 ovarian, greater than 50 µM. For the same compound, the TGI in the experiment on HT29 colon and with K-562 leukemia was greater than 50 µM each time.
Consider `CC(=O)Nc1ccc(/C=C/C(=O)c2ccccc2)cc1`, for which the GI50 in the experiment on T-47D breast was 13.8 µM; in the experiment with A498 renal, 15.9 µM; in the experiment on HCT-15 colon, 7.54 µM; with NCI-H460 lung, 17.6 µM; in the experiment with RXF 393 renal, 13.9 µM; in the experiment with OVCAR-5 ovarian, 18.3 µM. The GI50 is 8.29 µM in the experiment on HT29 colon and 3.28 µM in the experiment with K-562 leukemia. Also, the TGI in the experiment on T-47D breast came to 42.3 µM; in the experiment on A498 renal, 36.7 µM; in the experiment with HCT-15 colon it was 37.4 µM; in the experiment on NCI-H460 lung, 41.6 µM; in the experiment with RXF 393 renal, 27.5 µM; with OVCAR-5 ovarian it was 45.3 µM. Moreover, the TGI with HT29 colon is 24.9 µM; in the experiment on K-562 leukemia, greater than 100 µM.
For the compound `C/C=C/C/C=C/CCC(=O)[C@H]1O[C@H]1C(N)=O`, the GI50 in the experiment on T-47D breast was 13.7 µM; with A498 renal, 17.4 µM; with HCT-15 colon, 8.45 µM; in the experiment on NCI-H460 lung, 17 µM; in the experiment on RXF 393 renal, 5.07 µM; in the experiment with OVCAR-5 ovarian, 16.8 µM. In the experiment with K-562 leukemia, the GI50 is 19 µM. Besides, the TGI in the experiment with T-47D breast amounted to 34 µM; in the experiment on A498 renal, 43.7 µM; in the experiment on HCT-15 colon, 24.1 µM; in the experiment with NCI-H460 lung, 39.4 µM; in the experiment with RXF 393 renal it was 19.1 µM; in the experiment on OVCAR-5 ovarian, 31.4 µM. The TGI is 31.8 µM with HT29 colon and greater than 86.8 µM in the experiment on K-562 leukemia.
As to `Nc1ccccc1-c1ccc([N+](=O)[O-])cc1`, the GI50 with T-47D breast is 3.04 µM; in the experiment on A498 renal it was 29 µM; with HCT-15 colon, 14.3 µM; in the experiment on NCI-H460 lung, 4.44 µM; in the experiment on RXF 393 renal it was 55.9 µM; in the experiment with OVCAR-5 ovarian, 31.8 µM. Moreover, the GI50 in the experiment with HT29 colon was 54.4 µM; with K-562 leukemia, 1.32 µM. The TGI in the experiment with T-47D breast, with A498 renal, in the experiment on HCT-15 colon, with NCI-H460 lung, in the experiment on RXF 393 renal and in the experiment with OVCAR-5 ovarian was greater than 100 µM each time. Also, the TGI in the experiment with HT29 colon and in the experiment on K-562 leukemia was greater than 100 µM throughout.
`N=C(N)c1ccc(OCCOCCOc2ccc(C(=N)N)cc2)cc1`: the GI50 was 82.5 µM with T-47D breast; 63.7 µM with A498 renal; 84.1 µM in the experiment on HCT-15 colon; 44.2 µM in the experiment on NCI-H460 lung; greater than 100 µM in the experiment on RXF 393 renal; greater than 100 µM in the experiment with OVCAR-5 ovarian. The results for the GI50 with HT29 colon and with K-562 leukemia were 78.3 µM and 63.3 µM, respectively. Further, the TGI in the experiment with T-47D breast, in the experiment on A498 renal, with HCT-15 colon, in the experiment with NCI-H460 lung, with RXF 393 renal and with OVCAR-5 ovarian was greater than 100 µM each time. The TGI in the experiment on HT29 colon and in the experiment with K-562 leukemia was greater than 100 µM each time.
For the compound `CCOc1ccccc1NC(=O)c1cc2ccccc2cc1O`, the GI50 in the experiment with T-47D breast is 2.67 µM; in the experiment on A498 renal it was 2.16 µM; in the experiment on HCT-15 colon it was 3.27 µM; in the experiment with NCI-H460 lung, 2.94 µM; in the experiment with RXF 393 renal, 2.63 µM; in the experiment with OVCAR-5 ovarian it was 7.06 µM. In addition, the GI50 in the experiment with HT29 colon is 8.35 µM; with K-562 leukemia, 3.28 µM. In addition, the TGI in the experiment on T-47D breast was found to be 14.5 µM; in the experiment on A498 renal it was 5.55 µM; in the experiment with HCT-15 colon, 15.6 µM; with NCI-H460 lung it was 7.03 µM; in the experiment on RXF 393 renal, 7.62 µM; in the experiment on OVCAR-5 ovarian it was 27.7 µM. In addition, the TGI in the experiment on HT29 colon was determined as 25.4 µM; in the experiment on K-562 leukemia it was 14.1 µM.
With `O=S(=O)(Cc1ccc(Cl)cc1Cl)c1ccc(Cl)cc1`, the GI50 in the experiment on T-47D breast was 6.02 µM; with A498 renal it was 0.317 µM; in the experiment with HCT-15 colon, 0.419 µM; in the experiment with NCI-H460 lung, 0.401 µM; with RXF 393 renal, 1.4 µM; in the experiment with OVCAR-5 ovarian it was 4.28 µM. Besides, the GI50 is 0.338 µM in the experiment on HT29 colon and 0.303 µM in the experiment on K-562 leukemia. For the same compound, the TGI is greater than 100 µM in the experiment with T-47D breast; 16.3 µM in the experiment on A498 renal; greater than 100 µM with HCT-15 colon; 30 µM in the experiment with NCI-H460 lung; 7.55 µM with RXF 393 renal; greater than 100 µM with OVCAR-5 ovarian. The TGI is 3.84 µM in the experiment with HT29 colon and greater than 100 µM in the experiment with K-562 leukemia.
Take `O=c1ccc(N=Nc2ccc([N+](=O)[O-])cc2)ccc1O`: the GI50 with T-47D breast was 4.31 µM; in the experiment on A498 renal, greater than 100 µM; in the experiment with HCT-15 colon it was 3.89 µM; with NCI-H460 lung, 3.48 µM; with RXF 393 renal, 7.37 µM; in the experiment with OVCAR-5 ovarian it was 30.1 µM. In addition, the GI50 is 5.71 µM in the experiment on HT29 colon and 3.83 µM with K-562 leukemia. Further, the TGI in the experiment with T-47D breast, in the experiment with A498 renal, in the experiment on HCT-15 colon, in the experiment on NCI-H460 lung, in the experiment on RXF 393 renal and in the experiment on OVCAR-5 ovarian was greater than 100 µM in each case. For the same compound, the TGI in the experiment with HT29 colon and with K-562 leukemia was greater than 100 µM each time.

For the origin of these results see PubChem BioAssay (NCI).
